Activity calls are given as the source filed them.
Key:
[1] = test system: Vero; experiment: Vero cell cytotoxicity, cytotoxicity control for flavivirus capping enzyme inhibitors (AID 588742); type: functional; conditions: Chlorocebus sabaeus
[2] = target: Genome polyprotein (dengue virus type 2, UniProt P29990); experiment: Dengue-2 NS5 methyltransferase inhibitors, primary screen, biochemical, confirmation dose response (AID 588689); type: functional
[3] = target: Protein disulfide-isomerase (Homo sapiens, UniProt P07237); experiment: PDI inhibitors, insulin aggregation turbidity, dose response, biochemical, absorbance, cherry-picked samples (AID 602350); type: functional
[4] = Luminescence Cell-Based Dose Response to Identify Activators of 5'UTR Stem-Loop Driven Prion Protein mRNA Translation in H4-C Neuroglioblastoma Cells. [Related pubchem assays: 1829 (Project Summary), 1814 (Primary HTS)]; type: functional
[5] = Luminescence Cell-Based Dose Confirmation HTS to Identify Activators of 5'UTR Stem-Loop Driven Alpha-Synuclein mRNA Translation in H4 Neuroglioblastoma Cells. [Related pubchem assays: 1829 (Project Summary), 1814 (Primary HTS)]; type: functional
[6] = Luminescence Cell-Based Dose Response HTS to Identify Activators of Luciferase Translation or Activity in H4 […] Cells. [Related pubchem assays: 1829 (Project Summary), 1814 (Primary HTS)]; type: functional
[7] = test system: H4; experiment: Luminescence Cell-Based Dose Response HTS to Identify Activators of 5'UTR Stem-Loop Driven Prion Protein mRNA Translation in H4 Neuroglioblastoma Cells. [Related pubchem assays: 1829 (Project Summary), 1814 (Primary HTS)]; type: functional; conditions: Homo sapiens
[8] = Luminescence Cell-Based Dose Response to Identify Activators of Luciferase Translation or Activity in H4-C Neuroglioblastoma Cells. [Related pubchem assays: 1829 (Project Summary), 1814 (Primary HTS)]; type: functional
[9] = Luminescence Cell-Based Dose Confirmation to Identify Activators of 5'UTR Stem-Loop Driven Alpha-Synuclein mRNA Translation in H4 Neuroglioblastoma Cells. [Related pubchem assays: 1829 (Project Summary), 1814 (Primary HTS)]; type: functional
[10] = target: T1, Sentrin-specific protease 8 (Homo sapiens, UniProt Q96LD8); experiment: SENP8 protease inhibitors, SAR follow-up, biochemical, luminescence (AID 504501); type: functional
T1 sequence (Q96LD8 whole entry): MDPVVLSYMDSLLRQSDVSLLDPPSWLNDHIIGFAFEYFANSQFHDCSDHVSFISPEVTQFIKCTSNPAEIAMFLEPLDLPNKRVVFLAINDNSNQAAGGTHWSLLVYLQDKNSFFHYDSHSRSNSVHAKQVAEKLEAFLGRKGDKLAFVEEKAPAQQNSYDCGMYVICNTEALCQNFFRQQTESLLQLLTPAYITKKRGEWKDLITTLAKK

[11] = target: T2, Caspase-3 (Homo sapiens, UniProt P42574); experiment: SAR Analysis of small molecule inhibitors of Sentrin-specific proteases (SENPs) using a Caspase-3 Selectivity assay. [Related pubchem assays (depositor defined):AID2540, AID2599, AID434973, AID489001]; type: functional
T2 sequence (P42574 whole entry): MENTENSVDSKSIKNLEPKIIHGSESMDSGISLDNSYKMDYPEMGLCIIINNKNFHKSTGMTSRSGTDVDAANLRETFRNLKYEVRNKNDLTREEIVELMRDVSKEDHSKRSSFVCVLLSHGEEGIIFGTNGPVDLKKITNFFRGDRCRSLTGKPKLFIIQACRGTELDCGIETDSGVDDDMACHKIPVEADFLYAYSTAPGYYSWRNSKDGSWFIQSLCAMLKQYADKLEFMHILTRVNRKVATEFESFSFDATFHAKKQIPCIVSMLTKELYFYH

[12] = target: T3, Sentrin-specific protease 6 (Homo sapiens, UniProt Q9GZR1); experiment: SAR Analysis of small molecule inhibitors of Sentrin-specific protease 6 (SENP6) using a Luminescent assay. [Related pubchem assays (depositor defined):AID2582, AID2599]; type: functional
T3 sequence (Q9GZR1 whole entry): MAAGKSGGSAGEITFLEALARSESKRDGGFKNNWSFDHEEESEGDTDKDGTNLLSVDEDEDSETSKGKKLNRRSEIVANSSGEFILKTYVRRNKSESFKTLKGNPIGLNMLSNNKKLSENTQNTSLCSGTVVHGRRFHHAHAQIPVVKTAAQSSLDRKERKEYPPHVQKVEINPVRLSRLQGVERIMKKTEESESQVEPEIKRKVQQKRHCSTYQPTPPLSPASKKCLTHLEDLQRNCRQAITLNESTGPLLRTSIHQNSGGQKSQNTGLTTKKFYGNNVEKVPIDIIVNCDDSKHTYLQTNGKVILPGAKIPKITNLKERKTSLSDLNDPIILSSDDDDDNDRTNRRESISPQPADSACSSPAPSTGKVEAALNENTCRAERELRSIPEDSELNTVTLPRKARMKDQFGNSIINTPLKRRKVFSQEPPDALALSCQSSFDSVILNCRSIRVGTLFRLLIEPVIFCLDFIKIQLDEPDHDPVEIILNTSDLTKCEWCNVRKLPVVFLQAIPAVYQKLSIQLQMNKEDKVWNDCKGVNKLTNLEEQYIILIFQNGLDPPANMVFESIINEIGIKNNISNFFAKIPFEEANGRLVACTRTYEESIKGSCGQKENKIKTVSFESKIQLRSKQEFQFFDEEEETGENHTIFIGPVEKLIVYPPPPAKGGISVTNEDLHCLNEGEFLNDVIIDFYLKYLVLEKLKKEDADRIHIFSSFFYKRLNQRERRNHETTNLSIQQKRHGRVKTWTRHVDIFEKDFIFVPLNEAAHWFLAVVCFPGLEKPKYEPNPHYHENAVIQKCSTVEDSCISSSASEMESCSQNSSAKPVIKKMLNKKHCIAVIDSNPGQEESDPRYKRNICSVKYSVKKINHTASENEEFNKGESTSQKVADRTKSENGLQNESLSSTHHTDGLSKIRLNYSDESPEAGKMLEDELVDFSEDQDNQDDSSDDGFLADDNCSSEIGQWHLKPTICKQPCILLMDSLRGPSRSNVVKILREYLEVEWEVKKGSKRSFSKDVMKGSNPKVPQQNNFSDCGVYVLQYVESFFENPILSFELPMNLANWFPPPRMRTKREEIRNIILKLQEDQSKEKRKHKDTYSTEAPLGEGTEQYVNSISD

[13] = target: T4, Sentrin-specific protease 7 (Homo sapiens, UniProt Q9BQF6); experiment: SENP7 protease inhibitors, SAR follow-up, biochemical, luminescence (AID 504497); type: functional
T4 sequence (Q9BQF6 whole entry): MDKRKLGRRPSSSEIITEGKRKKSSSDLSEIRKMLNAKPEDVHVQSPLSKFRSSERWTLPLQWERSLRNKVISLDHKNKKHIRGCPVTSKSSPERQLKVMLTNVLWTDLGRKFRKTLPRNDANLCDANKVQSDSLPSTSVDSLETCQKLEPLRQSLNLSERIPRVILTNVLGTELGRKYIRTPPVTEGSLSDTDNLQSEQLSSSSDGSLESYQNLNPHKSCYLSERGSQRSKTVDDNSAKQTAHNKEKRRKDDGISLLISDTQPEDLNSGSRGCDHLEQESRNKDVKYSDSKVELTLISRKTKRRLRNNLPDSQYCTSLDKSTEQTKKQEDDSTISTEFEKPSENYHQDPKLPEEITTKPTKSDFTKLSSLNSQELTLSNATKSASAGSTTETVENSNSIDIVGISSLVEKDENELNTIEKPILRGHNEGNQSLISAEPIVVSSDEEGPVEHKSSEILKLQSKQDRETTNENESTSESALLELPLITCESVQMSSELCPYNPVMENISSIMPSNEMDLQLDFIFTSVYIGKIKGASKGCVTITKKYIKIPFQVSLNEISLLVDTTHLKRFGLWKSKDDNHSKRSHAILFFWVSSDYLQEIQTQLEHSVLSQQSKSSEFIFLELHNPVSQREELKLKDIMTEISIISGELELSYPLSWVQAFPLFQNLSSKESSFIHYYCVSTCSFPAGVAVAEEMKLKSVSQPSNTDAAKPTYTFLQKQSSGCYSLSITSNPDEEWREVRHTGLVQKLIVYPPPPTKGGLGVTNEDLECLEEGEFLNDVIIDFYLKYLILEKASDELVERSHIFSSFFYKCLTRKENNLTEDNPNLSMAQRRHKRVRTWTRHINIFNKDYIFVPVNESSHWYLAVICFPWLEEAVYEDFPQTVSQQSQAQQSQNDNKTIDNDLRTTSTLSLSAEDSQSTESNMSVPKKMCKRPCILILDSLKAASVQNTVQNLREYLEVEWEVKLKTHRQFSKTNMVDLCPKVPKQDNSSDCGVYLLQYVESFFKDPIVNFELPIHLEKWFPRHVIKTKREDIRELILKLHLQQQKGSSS

[14] = target: Hexokinase-1 (Homo sapiens, UniProt P19367); experiment: SAR analysis of small molecule inhibitors of hexokinase domain containing I (HKDC1) in the hexokinase 1 selectivity assay. [Related pubchem assays (depositor defined):AID493160, AID493190]; type: functional
[15] = target: T5, Hexokinase HKDC1 (Homo sapiens, UniProt Q2TB90); experiment: SAR analysis of small molecule inhibitors of hexokinase domain containing I (HKDC1). [Related pubchem assays (depositor defined):AID493160, AID493190]; type: functional
T5 sequence (Q2TB90 whole entry): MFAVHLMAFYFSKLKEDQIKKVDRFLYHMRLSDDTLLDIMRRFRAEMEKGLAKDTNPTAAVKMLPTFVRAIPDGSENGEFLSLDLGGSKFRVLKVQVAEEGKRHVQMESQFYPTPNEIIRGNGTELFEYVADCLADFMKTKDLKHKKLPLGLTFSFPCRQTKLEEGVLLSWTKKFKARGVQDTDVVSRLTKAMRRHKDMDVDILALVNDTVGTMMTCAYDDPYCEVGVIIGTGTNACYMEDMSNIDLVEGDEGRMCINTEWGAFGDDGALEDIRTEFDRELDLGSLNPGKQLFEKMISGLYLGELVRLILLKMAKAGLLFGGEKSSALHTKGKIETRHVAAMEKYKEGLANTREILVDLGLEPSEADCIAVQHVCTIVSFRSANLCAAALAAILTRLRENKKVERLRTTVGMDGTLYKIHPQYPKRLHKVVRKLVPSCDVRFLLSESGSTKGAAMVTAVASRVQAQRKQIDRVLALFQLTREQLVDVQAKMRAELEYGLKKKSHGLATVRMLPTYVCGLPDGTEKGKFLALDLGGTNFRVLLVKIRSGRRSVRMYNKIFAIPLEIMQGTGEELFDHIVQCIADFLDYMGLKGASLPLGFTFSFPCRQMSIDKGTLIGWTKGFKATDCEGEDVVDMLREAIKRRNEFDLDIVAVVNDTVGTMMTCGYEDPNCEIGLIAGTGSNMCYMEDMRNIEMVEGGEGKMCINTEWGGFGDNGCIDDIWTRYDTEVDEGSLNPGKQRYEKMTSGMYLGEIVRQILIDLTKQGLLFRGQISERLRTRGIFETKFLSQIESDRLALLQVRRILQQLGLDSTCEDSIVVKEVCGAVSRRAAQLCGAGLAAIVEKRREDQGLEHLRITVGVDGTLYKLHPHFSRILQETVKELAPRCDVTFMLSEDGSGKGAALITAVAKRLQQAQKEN

[16] = test system: Streptococcus sp. 'group A'; experiment: growth inhibition of control SK(-) GAS strain, dose response, counter-screen for streptokinase expression inhibitor project, luminescence, kanamycin, BacTiterGlo, confirmation (AID 1900); type: functional, organism-based
[17] = test system: Streptococcus; experiment: Group A Streptococcus viability loss, dose response, counter-screen for streptokinase expression inhibitor project, luminescence, BacTiterGlo (AID 1915); type: functional, organism-based;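 note: potency for reduction of bacterial viability or growth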
[18] = target: Nonstructural protein 1 (Influenza A virus, UniProt Q194T2); type: functional, Influenza A virus (A/California/07/2009(H1N1))
[19] = target: 26S proteasome non-ATPase regulatory subunit 14 (Homo sapiens, UniProt O00487); experiment: inhibition of proteasome subunit RPN11 – biochemical, fluorescence polarization, uHTS hits, confirmation (AID 602368); type: functional
[20] = target: 72 kDa type IV collagenase (Homo sapiens, UniProt P08253); experiment: Dose Response validation of uHTS RPN11 inhibitor hits using a MMP-2 Fluorescence assay.; type: functional
[21] = target: Prothrombin (Bos taurus, UniProt P00735); experiment: thrombin inhibition, dose response, biochemical, fluorescence polarization, uHTS hits (AID 602369); type: functional
[22] = target: Cyclin-dependent kinase 5 (Homo sapiens, UniProt Q00535); type: functional;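 note: CDK5 measured as one member of a kinase profiling panel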
[23] = target: Cyclin-dependent kinase 8 (Homo sapiens, UniProt P49336); experiment: Navigating the Kinome. Panel member name: CDK8; type: functional
Sequence of Cyclin-dependent kinase 8 (P49336 whole entry): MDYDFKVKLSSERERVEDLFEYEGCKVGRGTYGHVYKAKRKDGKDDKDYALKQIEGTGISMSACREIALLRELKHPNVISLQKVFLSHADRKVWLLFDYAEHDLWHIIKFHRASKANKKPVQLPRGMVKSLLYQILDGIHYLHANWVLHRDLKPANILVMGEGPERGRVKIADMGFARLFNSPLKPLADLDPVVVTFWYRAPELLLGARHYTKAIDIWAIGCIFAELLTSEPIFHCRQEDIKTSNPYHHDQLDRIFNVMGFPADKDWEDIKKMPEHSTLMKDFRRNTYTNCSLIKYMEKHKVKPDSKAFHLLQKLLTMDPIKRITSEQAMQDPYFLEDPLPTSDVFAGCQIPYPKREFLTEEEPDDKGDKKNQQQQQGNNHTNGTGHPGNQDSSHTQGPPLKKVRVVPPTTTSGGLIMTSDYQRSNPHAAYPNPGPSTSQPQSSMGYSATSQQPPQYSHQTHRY

Sequence of Genome polyprotein (P29990 2492-3391 limits assumed): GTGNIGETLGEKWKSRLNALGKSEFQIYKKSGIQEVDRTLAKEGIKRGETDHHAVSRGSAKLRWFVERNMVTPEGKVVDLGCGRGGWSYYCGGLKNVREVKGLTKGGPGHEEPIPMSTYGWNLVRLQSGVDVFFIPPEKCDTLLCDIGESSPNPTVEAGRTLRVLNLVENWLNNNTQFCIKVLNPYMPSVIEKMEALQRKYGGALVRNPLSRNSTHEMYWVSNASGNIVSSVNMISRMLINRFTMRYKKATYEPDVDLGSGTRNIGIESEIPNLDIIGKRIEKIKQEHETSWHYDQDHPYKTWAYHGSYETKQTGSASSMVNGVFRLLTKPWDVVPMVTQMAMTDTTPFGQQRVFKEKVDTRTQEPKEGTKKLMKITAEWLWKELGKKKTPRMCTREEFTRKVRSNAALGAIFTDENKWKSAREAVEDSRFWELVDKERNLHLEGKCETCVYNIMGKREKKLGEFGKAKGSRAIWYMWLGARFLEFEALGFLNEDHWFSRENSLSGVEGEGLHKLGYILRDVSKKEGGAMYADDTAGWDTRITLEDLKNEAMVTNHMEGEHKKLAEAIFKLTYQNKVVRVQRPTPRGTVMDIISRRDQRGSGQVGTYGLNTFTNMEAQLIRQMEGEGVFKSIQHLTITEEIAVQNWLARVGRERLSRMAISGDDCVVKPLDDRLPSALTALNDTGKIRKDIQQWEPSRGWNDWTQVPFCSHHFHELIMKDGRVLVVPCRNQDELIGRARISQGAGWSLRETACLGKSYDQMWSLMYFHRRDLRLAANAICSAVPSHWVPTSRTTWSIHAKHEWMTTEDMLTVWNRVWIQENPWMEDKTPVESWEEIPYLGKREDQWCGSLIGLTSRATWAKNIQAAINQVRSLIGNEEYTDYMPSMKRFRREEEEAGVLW
Sequence of Hexokinase-1 (P19367 whole entry, the tested form may be a part): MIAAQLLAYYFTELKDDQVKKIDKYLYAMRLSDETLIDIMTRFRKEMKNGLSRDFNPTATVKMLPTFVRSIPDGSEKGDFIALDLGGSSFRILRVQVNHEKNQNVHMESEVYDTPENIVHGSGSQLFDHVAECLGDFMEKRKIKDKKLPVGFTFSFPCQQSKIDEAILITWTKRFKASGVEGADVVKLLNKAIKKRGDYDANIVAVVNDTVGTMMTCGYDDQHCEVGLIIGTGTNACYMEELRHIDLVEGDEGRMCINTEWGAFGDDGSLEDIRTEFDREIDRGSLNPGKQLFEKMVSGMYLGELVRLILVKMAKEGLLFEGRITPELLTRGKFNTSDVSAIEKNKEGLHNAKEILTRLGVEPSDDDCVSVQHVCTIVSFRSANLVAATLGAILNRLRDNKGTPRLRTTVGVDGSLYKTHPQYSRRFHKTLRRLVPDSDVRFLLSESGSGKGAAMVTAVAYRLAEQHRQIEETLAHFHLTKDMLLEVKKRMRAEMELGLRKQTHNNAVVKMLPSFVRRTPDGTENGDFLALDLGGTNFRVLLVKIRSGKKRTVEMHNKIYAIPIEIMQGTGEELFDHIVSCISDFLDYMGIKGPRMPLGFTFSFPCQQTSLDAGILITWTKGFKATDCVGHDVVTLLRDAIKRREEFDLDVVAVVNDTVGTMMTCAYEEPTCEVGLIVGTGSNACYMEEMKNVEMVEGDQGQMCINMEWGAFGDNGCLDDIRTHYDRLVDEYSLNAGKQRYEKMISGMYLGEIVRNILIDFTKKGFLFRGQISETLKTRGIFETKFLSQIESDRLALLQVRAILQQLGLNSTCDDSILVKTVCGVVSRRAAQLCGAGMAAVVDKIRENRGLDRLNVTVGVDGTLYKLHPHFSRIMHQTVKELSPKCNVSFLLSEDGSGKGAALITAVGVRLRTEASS
Sequence of Protein disulfide-isomerase (P07237 whole entry): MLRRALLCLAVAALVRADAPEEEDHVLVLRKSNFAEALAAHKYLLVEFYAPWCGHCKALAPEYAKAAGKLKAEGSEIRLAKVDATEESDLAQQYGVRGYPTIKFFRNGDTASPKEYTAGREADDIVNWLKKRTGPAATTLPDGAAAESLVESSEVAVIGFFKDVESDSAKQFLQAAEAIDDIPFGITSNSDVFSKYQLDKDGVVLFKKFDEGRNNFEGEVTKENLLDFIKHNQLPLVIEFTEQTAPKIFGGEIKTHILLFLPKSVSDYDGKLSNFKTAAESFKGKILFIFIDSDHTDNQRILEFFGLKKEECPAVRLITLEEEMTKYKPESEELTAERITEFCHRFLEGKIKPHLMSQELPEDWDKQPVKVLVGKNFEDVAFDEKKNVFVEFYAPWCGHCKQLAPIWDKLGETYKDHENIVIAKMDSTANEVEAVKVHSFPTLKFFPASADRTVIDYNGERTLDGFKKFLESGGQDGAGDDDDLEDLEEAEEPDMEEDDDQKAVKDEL
Sequence of Nonstructural protein 1 (Q194T2 whole entry): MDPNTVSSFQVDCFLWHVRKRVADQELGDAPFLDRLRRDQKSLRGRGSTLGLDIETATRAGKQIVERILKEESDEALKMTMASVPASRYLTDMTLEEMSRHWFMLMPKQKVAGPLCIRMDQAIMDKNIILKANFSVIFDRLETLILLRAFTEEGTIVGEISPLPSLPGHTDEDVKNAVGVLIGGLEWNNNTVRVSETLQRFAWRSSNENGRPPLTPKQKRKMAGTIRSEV
Sequence of 72 kDa type IV collagenase (P08253 whole entry): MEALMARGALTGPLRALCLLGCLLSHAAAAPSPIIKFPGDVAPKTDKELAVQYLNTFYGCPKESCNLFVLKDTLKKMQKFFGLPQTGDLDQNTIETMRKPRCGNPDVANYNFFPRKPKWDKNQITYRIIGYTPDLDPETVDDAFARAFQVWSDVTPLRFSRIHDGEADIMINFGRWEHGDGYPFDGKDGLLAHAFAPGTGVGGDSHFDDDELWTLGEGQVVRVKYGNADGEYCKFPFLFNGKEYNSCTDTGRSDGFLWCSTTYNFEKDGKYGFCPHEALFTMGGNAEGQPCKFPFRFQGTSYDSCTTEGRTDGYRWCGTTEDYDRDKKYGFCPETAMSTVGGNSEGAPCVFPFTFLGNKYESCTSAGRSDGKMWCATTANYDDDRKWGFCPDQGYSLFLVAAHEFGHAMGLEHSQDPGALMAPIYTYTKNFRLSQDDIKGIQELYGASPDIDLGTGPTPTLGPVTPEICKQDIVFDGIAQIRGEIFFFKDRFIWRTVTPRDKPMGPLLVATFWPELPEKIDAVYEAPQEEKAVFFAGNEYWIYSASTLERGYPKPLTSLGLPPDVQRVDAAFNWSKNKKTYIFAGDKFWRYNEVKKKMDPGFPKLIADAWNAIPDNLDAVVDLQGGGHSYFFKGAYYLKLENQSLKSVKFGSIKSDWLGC
Sequence of 26S proteasome non-ATPase regulatory subunit 14 (O00487 whole entry): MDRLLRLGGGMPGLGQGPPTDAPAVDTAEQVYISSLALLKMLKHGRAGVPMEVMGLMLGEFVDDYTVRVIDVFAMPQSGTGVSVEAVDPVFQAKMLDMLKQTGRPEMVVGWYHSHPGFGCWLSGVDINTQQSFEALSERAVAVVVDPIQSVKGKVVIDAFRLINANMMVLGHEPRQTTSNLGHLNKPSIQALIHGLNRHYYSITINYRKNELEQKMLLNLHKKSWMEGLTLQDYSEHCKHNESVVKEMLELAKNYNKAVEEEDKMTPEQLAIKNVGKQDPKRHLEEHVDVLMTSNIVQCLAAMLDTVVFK
Sequence of Cyclin-dependent kinase 5 (Q00535 whole entry): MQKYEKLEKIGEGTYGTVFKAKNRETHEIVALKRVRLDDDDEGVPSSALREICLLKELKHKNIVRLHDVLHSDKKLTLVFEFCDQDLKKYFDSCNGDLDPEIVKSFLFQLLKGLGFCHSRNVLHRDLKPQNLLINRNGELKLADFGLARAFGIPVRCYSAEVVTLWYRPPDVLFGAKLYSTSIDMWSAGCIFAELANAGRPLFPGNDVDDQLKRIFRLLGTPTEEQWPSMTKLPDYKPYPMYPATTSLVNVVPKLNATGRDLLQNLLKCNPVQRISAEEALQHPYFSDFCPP

CSc1ccc(-c2sc(Nc3cccc4ccccc34)n[n+]2-c2ccccc2)cc1
CC50 [1]: > 40 µM (active) | IC50 [2]: 44.5 µM (active)

O=C1NC[C@H](Cc2ccc(O)cc2)N(CC2CCCCC2)C1=O
AC50 [3]: 19.5 µM (active)

Cc1ccc(-c2nn(-c3ccccc3)cc2C=C2C(=O)CC(C)(C)CC2=O)cc1
EC50 [4]: > 12 µM (not active) | EC50 [5]: > 120 µM (not active) | EC50 [6]: 0.454 µM (active) | EC50 [7]: > 120 µM (not active) | EC50 [8]: 1.35 µM (active) | EC50 [9]: 0.555 µM (active) | CC50 [1]: 19.1 µM (active) | IC50 [2]: 44.8 µM (active)

COc1cc2cc(NC(C)=O)cc(NCCCO)c2cc1OC
IC50 [10]: 56 µM (active) | IC50 [11]: 37.7 µM (active) | IC50 [12]: 16.9 µM (active) | IC50 [13]: 29.3 µM (active)

O=C(Nc1nnc(SCc2ccccc2)s1)c1ccc2[nH]cnc2c1
IC50 [14]: > 80 µM (inactive) | IC50 [15]: > 80 µM (inactive)

Cc1cc2nnc(SCC(=O)Nc3ccccc3)n2c2ccccc12
IC50 [14]: > 80 µM (inactive) | IC50 [15]: > 80 µM (inactive)

CC(C)CC(=O)Nc1ccc2nc(NC(=O)c3ccccc3)sc2c1
IC50 [10]: 6.63 µM (active) | IC50 [11]: 7.24 µM (active) | IC50 [12]: 6.09 µM (active) | IC50 [13]: 3.07 µM (active)

C[C@H](CO)N1C[C@H](C)[C@@H](CN(C)Cc2ccc(Oc3ccccc3)cc2)Oc2c(NS(C)(=O)=O)cccc2C1=O
AC50 [3]: 19.5 µM (active)

O=[N+]([O-])c1ccc(O)c(/N=C/c2sc3ccccc3c2O)c1
EC50 [16]: 5.2 µM (active) | EC50 [17]: 9.08 µM (active) | IC50 [18]: > 100 µM (active) | IC50 [19]: 3.28 µM (active) | IC50 [20]: > 100 µM (inactive) | IC50 [21]: 2.57 µM (active)

C=C1c2ccccc2CC(CCN(C)C)c2ccccc21 (configuration not stated)
Ki [22]: 3.16 µM (active) | Ki [23]: 1.26 µM (active)
